Experimental data reported in patent US10398710B2, “Method for screening regulator of mitochondrial fission” (priority 2015, dated 2019).
Values after ≈ are worked out from the molar mass of the structure shown. Peptide text beside a SMILES is read from it. * marks the point of attachment. Cbz = O=C(OCc1ccccc1)*; CH2F = FC*

How the values were obtained:
MCF-7 cells [1] = experiment: WST-1 viability of MCF-7 cells pretreated with ginsenoside, then treated with doxorubicin or tamoxifen; type: cell-based; settings: for effect on anticancer activity of doxorubicin / anticancer activity with doxorubicin compared to only doxorubicin: 10 μg/mL ginsenoside 12 hours; for effect on anticancer activity of doxorubicin: then 5 μg/mL doxorubicin 12 hours; for anticancer activity with doxorubicin compared to only doxorubicin: then doxorubicin 0-50 μg/mL 24 hours
Procedure: Specifically, 10 μg/mL of PPD-type ginsenoside compound (F2, Rh2, C-K, or PPD) was added to the MCF-7 cells and was cultured for 12 hours. 20 μM of tamoxifen or 5 μg/mL of doxorubicin was then treated, and 12 hours of culturing was performed. Upon completion of the culturing, viability of MCF-7 cells was compared via WST-1 analysis (FIG. 2a).
Accordingly, in order to investigate whether C-K or PPD has an effect on a treatment concentration of doxorubicin, 10 μg/mL of the PPD-type ginsenoside compound (C-K or PPD) was added and cultured for 12 hours. Doxorubicin at various concentrations (0, 0.1, 0.5, 1, 2, 5, 10, and 50 μg/mL) was then treated and cultured for 24 hours, followed by comparing viabilities of the MCF-7 cells and also comparing LC50 values calculated therefrom via WST-1 analysis (FIG. 2b).

MCF-7 cells [2] = experiment: Western blot of mitochondrial fission- and fusion-related proteins; type: cell-based, human; settings: 10 μg/mL, 24 hours
Procedure: In this regard, Western blot analysis was performed for each cultured cell to compare an expression level of the mitochondrial fission-related proteins (Drp1, Fis1, or OPA-3) and mitochondrial fusion-related proteins (Mfn1. Mfn2, or OPA1) (FIG. 5b).

MCF-7 cells [3] = experiment: Effect of PARP or caspase-9 inhibitor on the anticancer effect of doxorubicin with C-K or PPD; type: cell-based, human; settings: for anticancer activity of doxorubicin under PARP activity inhibitor with ginsenoside: 10 μg/mL ginsenoside and 5 μg/mL doxorubicin; for anticancer effect of doxorubicin in cells treated with the inhibitor: all control and experiment groups, 5 μg/mL doxorubicin 24 hours
Procedure: Specifically, a culture medium containing 10 μg/mL of C-K or PPD was added to MCF-7 cells already treated with Z-LEHD-FMK, an inhibitor of caspase-9, or 3-AB, an inhibitor of PARP, was cultured for 12 hours, and was then replaced with a culture medium containing 10 μg/mL of C-K or PPD and 0 g/mL or 5 μg/mL of doxorubicin, followed by 24 hours of culturing. Western blot analysis was performed using the cultured cells in the same manner as above (FIG. 3c).

MCF-7 cells [4] = experiment: Cytochrome-C release from mitochondria, immunofluorescent staining; type: cell-based, human; settings: for increase in level of cytochrome-C release compared to doxorubicin alone / total cells from which cytochrome-C was released, ginsenoside and doxorubicin: 10 μg/mL ginsenoside 24 hours; for increase in level of cytochrome-C release compared to doxorubicin alone: then 5 μg/mL doxorubicin 4 hours; for total cells from which cytochrome-C was released, ginsenoside and doxorubicin: then 5 μg/mL doxorubicin
Procedure: A culture medium containing 10 μg/mL of C-K or PPD was added to MCF-7 cells, was cultured for 24 hours, and was then replaced with a culture medium containing 5 μg/mL of doxorubicin, followed by 0 or 4 hours of culturing. The cultured cells were fixed by adding 4% paraformaldehyde and were perforated by adding an 0.5% Triton X-100 solution, followed by 30 minutes of immunostaining using a cytochrome-C antibody. After staining, the cells were washed with PBS. Stained second antibodies were heated for 30 minutes and washed with PBS, followed by being recorded with a confocal microscope, to measure a level of fluorescence (FIG. 4a).
In this regard, whether the level of cytochrome-C release changes depending on treatment time of doxorubicin was investigated. In other words, a culture medium containing 10 μg/mL of C-K or PPD was added to MCF-7 cells, was cultured for 24 hours, and was then replaced with a culture medium containing 5 μg/mL of doxorubicin, followed by 0, 0.5, 1, 2, 4, or 6 hours of culturing. The immunofluorescent staining was performed in the same manner as previously described except the culturing time to measure the number of cytochrome-C released into cytoplasm from mitochondria (FIG. 4b). As a control group, an experiment group untreated with ginsenoside was used.

MCF-7 cells [5] = experiment: Western blot of apoptosis-related proteins (pJNK, cleaved-PARP, cleaved-caspase-9); type: cell-based, human; settings: for level of cleaved-PARP, effect of ginsenoside treatment / level of cleaved-caspase-9, effect of ginsenoside treatment / level of pJNK, effect of ginsenoside treatment: 10 μg/mL ginsenoside with 5 μg/mL doxorubicin
Procedure: A culture medium containing 10 μg/mL of C-K or PPD was added to the MCF-7 cells, was cultured for 12 hours, and was then replaced with a culture medium containing 10 μg/mL of C-K or PPD and 0 g/mL or 5 μg/mL of doxorubicin, followed by 24 hours of culturing. The cultured cells were destroyed, and Western blot analysis was performed using a pJNK antibody, PARP antibody, cleaved-PARP antibody, caspase-9 antibody, or cleaved-caspase-9 antibody (FIG. 3a).
Accordingly, a culture medium containing 10 μg/mL of PPD was added to the MCF-7 cells, was cultured for 12 hours, and was then replaced with a culture medium containing 10 μg/mL of PPD and 5 μg/mL of doxorubicin, followed by 0, 0.5, 1, 2, 4, or 6 hours of culturing. Western blot analysis was performed using the cultured cells in the same manner as above (FIG. 3b). As a comparison group, cells cultured in a culture medium containing doxorubicin only was used instead of that containing both PPD and doxorubicin.

MCF-7 cells [6] = experiment: Fluorescence staining of mitochondria with Tom-20; type: cell-based, human; settings: 10 μg/mL, 24 hours, Tom-20 staining
Procedure: In other words, a culture medium containing 10 μg/mL of C-K or PPD was added to MCF-7 cells and was cultured for 24 hours. The cultured cells were fixed by adding 4% paraformaldehyde and were perforated by adding a 0.5% Triton X-100 solution, followed by staining the mitochondria using Tom-20. The stained cells were washed with PBS and were recorded with a confocal microscope to measure a level of fluorescence (FIG. 5a).

MCF-7 cells [7] = experiment: WST-1 viability of MCF-7 cells treated with PPD-type ginsenoside compounds; type: cell-based, human; settings: MCF-7, 0-200 μg/mL, 24 hours
Procedure: First, MCF-7 cells, a human breast cancer cell line, were inoculated in a DMEM culture medium containing 10% FBS and 1% penicillin/streptomycin, and were then cultured at conditions of 37° C. and 5% CO2. When the cultured MCF-7 cells were saturated, subculture thereof was followed in a three- to five-day interval.
The cultured MCF-7 cells were treated with the PPD-type ginsenoside compounds (F2, Rh2, C-K, or PPD) at various concentrations (0, 5, 10, 20, 50, 100, or 200 μg/mL) for 24 hours, and WST-1 analysis was then performed on the cells to measure viability thereof (FIG. 1). The WST-1 analysis was performed by inoculating each cell in a culture medium containing 10% EZ-Cytox and reacting at 37° C. for 1.5 hours, followed by measuring a level of water-soluble formazan dye produced by the viable cells as absorbance (450 nm) and analyzing the same to calculate the cell viability.

MCF-7 cells [8] = experiment: WST-1 viability of siRNA-treated MCF-7 cells treated with doxorubicin or tamoxifen; type: cell-based, human; settings: siRNA-treated MCF-7, 5 μM doxorubicin or 20 μM tamoxifen, 24 hours
Procedure: Meanwhile, each synthesized siRNA was inoculated into MCF-7 cells and was cultured for 12 hours. The cells were again cultured in a standard culture medium in which siRNA is not contained for 48 hours, followed by treating with 5 μM doxorubicin or 20 μM tamoxifen and culturing for 24 hours. After culturing, viabilities of the MCF-7 cells were measured via WST-1 analysis (FIG. 6b). As a control group, cells cultured without treating with doxorubicin or tamoxifen were used.

[9] = 10 μg/mL PPD and 5 μg/mL doxorubicin, 0-6 hours

For `CC(C)=CCC[C@](C)(O[C@@H]1OC(CO)[C@@H](O)C(O)C1O)C1CC[C@]2(C)C1[C@H](O)CC1[C@@]3(C)CCC(O)C(C)(C)C3CC[C@]12C` (some centres unmarked) [C-K, compound-K], the “effect on anticancer activity of doxorubicin” value (MCF-7 cells [1]) was “could enhance an anticancer activity by doxorubicin”, the “anticancer activity with doxorubicin compared to only doxorubicin” value (MCF-7 cells [1]) was “increased” and the “expression level of mitochondrial fission-related protein OPA-3” value (MCF-7 cells [2]) was “increased”. The “expression level of mitochondrial fusion-related protein Mfn2” value (MCF-7 cells [2]) was “decreased”, the “anticancer activity of doxorubicin under PARP activity inhibitor with ginsenoside” value (MCF-7 cells [3]) was “somewhat recovered” and the “increase in level of cytochrome-C release compared to doxorubicin alone” value (MCF-7 cells [4]) was “higher”. For the same compound, the “total cells from which cytochrome-C was released, ginsenoside and doxorubicin” value (MCF-7 cells [4]; after 6 hours) was 20%, the “level of cleaved-PARP, effect of ginsenoside treatment” value (MCF-7 cells [5]; 24 hours) was “not affected” and the “level of cleaved-caspase-9, effect of ginsenoside treatment” value (MCF-7 cells [5]; 24 hours) was “noticeably increased”. For the same compound, the “level of pJNK, effect of ginsenoside treatment” value (MCF-7 cells [5]; 24 hours) was “not affected”, the “state of mitochondria compared to negative control group” value (MCF-7 cells [6]) was “damaged” and the “anticancer activity against breast cancer cells (viability)” value (MCF-7 cells [7]) was “relatively excellent anticancer activity”.

In the case of `NC(=O)c1cccc(N)c1` [PARP inhibitor, 3-AB, reference compound], the “anticancer effect of doxorubicin in cells treated with the inhibitor” value (MCF-7 cells [3]) is reported as “inhibited”.

With `CC(C)=CCC[C@](C)(O)[C@H]1CC[C@]2(C)[C@@H]1[C@H](O)C[C@@H]1[C@@]3(C)CC[C@H](O)C(C)(C)[C@@H]3CC[C@]12C` [PPD, protopanaxadiol] the “effect on anticancer activity of doxorubicin” value (MCF-7 cells [1]) was “could enhance an anticancer activity by doxorubicin”, the “anticancer activity with doxorubicin compared to only doxorubicin” value (MCF-7 cells [1]) was “increased” and the “expression level of mitochondrial fission-related protein OPA-3” value (MCF-7 cells [2]) was “increased”. For the same compound, the “expression level of mitochondrial fusion-related protein Mfn2” value (MCF-7 cells [2]) was “decreased”, the “anticancer activity of doxorubicin under PARP activity inhibitor with ginsenoside” value (MCF-7 cells [3]) was “somewhat recovered” and the “increase in level of cytochrome-C release compared to doxorubicin alone” value (MCF-7 cells [4]) was “higher”. The “total cells from which cytochrome-C was released, ginsenoside and doxorubicin” value (MCF-7 cells [4]; after 6 hours) was 43%, the “formation of cleaved-PARP over time compared to doxorubicin only” value (MCF-7 cells [5]; [9]) was “faster” and the “formation of cleaved-caspase-9 over time compared to doxorubicin only” value (MCF-7 cells [5]; [9]) was “faster”. The “level of cleaved-PARP, effect of ginsenoside treatment” value (MCF-7 cells [5]; 24 hours) was “not affected”, the “level of cleaved-caspase-9, effect of ginsenoside treatment” value (MCF-7 cells [5]; 24 hours) was “significantly increased” and the “level of pJNK, effect of ginsenoside treatment” value (MCF-7 cells [5]; 24 hours) was “not affected”. The “state of mitochondria compared to negative control group” value (MCF-7 cells [6]) was “damaged” and the “anticancer activity against breast cancer cells (viability)” value (MCF-7 cells [7]) was “relatively excellent anticancer activity”.

`COC(=O)CC[C@H](NC(=O)[C@H](CC(C)C)NC(=O)OCc1ccccc1)C(=O)N[C@@H](Cc1cnc[nH]1)C(=O)N[C@@H](CC(=O)OC)C(=O)CF` [caspase-9 inhibitor, Z-LEHD-FMK, reference compound] (Cbz-LE(OMe)HD(OMe)-CH2F) was tested, and the “anticancer effect of doxorubicin in cells treated with the inhibitor” value (MCF-7 cells [3]) was “inhibited”.

`COc1cccc2c1C(=O)c1c(O)c3c(c(O)c1C2=O)C[C@@](O)(C(=O)CO)C[C@@H]3O[C@H]1C[C@H](N)[C@H](O)[C@H](C)O1` [doxorubicin, reference compound] was tested, and the CC50 (MCF-7 cells [1]; Homo sapiens, MCF7, 24 h, read-out: LC50) was ~10 µg/mL (≈ 18.4 µM), the “level of cytochrome-C release compared to no doxorubicin” value (MCF-7 cells [4]; 5 μg/mL doxorubicin, 4 hours) was “increased” and the “total cells from which cytochrome-C was released” value (MCF-7 cells [4]; only doxorubicin 5 μg/mL, after 6 hours) was 7%. The “level of cleaved-PARP” value (MCF-7 cells [5]; 5 μg/mL doxorubicin, 24 hours) was “increased”, the “level of cleaved-caspase-9” value (MCF-7 cells [5]; 5 μg/mL doxorubicin, 24 hours) was “increased” and the “level of pJNK” value (MCF-7 cells [5]; 5 μg/mL doxorubicin, 24 hours) was “increased”. For the same compound, the “anticancer activity on cells with mitochondrial fission” value (MCF-7 cells [8]) was “significantly higher anticancer activity” and the “change of anticancer activity depending on siRNA (Mfn2 inhibited compared to Mfn1 inhibited)” value (MCF-7 cells [8]) was “significantly increased”.

In the case of `CC/C(=C(\c1ccccc1)c1ccc(OCCN(C)C)cc1)c1ccccc1` [tamoxifen], the “anticancer activity on cells with mitochondrial fission” value (MCF-7 cells [8]) is reported as “showed the anticancer activity” and the “change of anticancer activity depending on siRNA (Mfn2 inhibited compared to Mfn1 inhibited)” value (MCF-7 cells [8]) is reported as “no difference”.
